Tests used:
CDK9/CycT1 = target: T1, CDK9/CycT1 (Homo sapiens, UniProt P50750); assay: CDK9/CycT1 kinase assay (TR-FRET); format: biochemical; settings: Method 1, 10 μM ATP
T1 construct: Recombinant full-length His-tagged human CDK9 and CycT1; His; purchased Invitrogen PV4131; host or cells: insect cells
Text: 1. CDK9/CycT1 Kinase Assay:
CDK9/CycT1-inhibitory activity of compounds of the present invention was quantified employing the CDK9/CycT1 TR-FRET assay as described in the following paragraphs:
Recombinant full-length His-tagged human CDK9 and CycT1, expressed in insect cells and purified by Ni-NTA affinity chromatography, were purchased from Invitrogen (Cat. No PV4131). As substrate for the kinase reaction biotinylated peptide biotin-Ttds-[…] (C-terminus in amid form) was used which can be purchased e.g. form the company JERINI Peptide Technologies (Berlin, Germany). For the assay 50 nl of a 100fold concentrated solution of the test compound in DMSO was pipetted into a black low volume 384well microtiter plate (Greiner Bio-One, Frickenhausen, Germany), 2 μl of a solution of CDK9/CycT1 in aqueous assay buffer [50 mM Tris/HCl pH 8.0, 10 mM MgCl2, 1.0 mM dithiothreitol, 0.1 mM sodium ortho-vanadate, 0.01% (v/v) Nonidet-P40 (Sigma)] were added and the mixture was incubated for 15 min at 22° C. to allow pre-binding of the test compounds to the enzyme before the start of the kinase reaction. Then the kinase reaction was started by the addition of 3 μl of a solution of adenosine-tri-phosphate (ATP, 16.7 μM=>final conc. in the 5 μl assay volume is 10 μM) and substrate (1.67 μM=>final conc. in the 5 μl assay volume is 1 μM) in assay buffer and the resulting mixture was incubated for a reaction time of 25 min at 22° C. The concentration of CDK9/CycT1 was adjusted depending of the activity of the enzyme lot and was chosen appropriate to have the assay in the linear range, typical concentrations were in the range of 1 μg/ml. The reaction was stopped by the addition of 5 μl of a solution of TR-FRET detection reagents (0.2 μM streptavidine-XL665 [Cisbio Bioassays, Codolet, France] and 1 nM anti-RB(pSer807/pSer811)-antibody from BD Pharmingen [#558389] and 1.2 nM LANCE EU-W1024 labeled anti-mouse IgG antibody [Perkin-Elmer, product no. AD0077]) in an aqueous EDTA-solution (100 mM EDTA, 0.2% (w/v) bovine serum albumin in 100 mM HEPES/NaOH pH 7.0).
(§1) The resulting mixture was incubated 1 h at 22° C. to allow the formation of complex between the phosphorylated biotinylated peptide and the detection reagents. Subsequently the amount of phosphorylated substrate was evaluated by measurement of the resonance energy transfer from the Eu-chelate to the streptavidine-XL. Therefore, the fluorescence emissions at 620 nm and 665 nm after excitation at 350 nm was measured in a HTRF reader, e.g. a Rubystar (BMG Labtechnologies, Offenburg, Germany) or a Viewlux (Perkin-Elmer). The ratio of the emissions at 665 nm and at 622 nm was taken as the measure for the amount of phosphorylated substrate.

[1] = system: HeLa human cervical tumour cells; assay: Proliferation assay (crystal violet), HeLa; format: cell-based; settings: read-out: Inhibition of HeLa cell proliferation
CDK2/CycE = target: T2, CDK2/CycE (Homo sapiens, UniProt P24941); assay: CDK2/CycE kinase assay (TR-FRET); format: biochemical; settings: Method 2, 10 μM ATP
T2 construct: GST; purchased ProQinase GmbH (Freiburg, Germany); host or cells: insect cells (Sf9)
Text: 2. CDK2/CycE Kinase Assay:
CDK2/CycE-inhibitory activity of compounds of the present invention was quantified employing the CDK2/CycE TR-FRET assay as described in the following paragraphs:
Recombinant fusion proteins of GST and human CDK2 and of GST and human CycE, expressed in insect cells (Sf9) and purified by Glutathion-Sepharose affinity chromatography, were purchased from ProQinase GmbH (Freiburg, Germany). As substrate for the kinase reaction biotinylated peptide biotin-Ttds-[…] (C-terminus in amid form) was used which can be purchased e.g. form the company JERINI Peptide Technologies (Berlin, Germany).
For the assay 50 nl of a 100fold concentrated solution of the test compound in DMSO was pipetted into a black low volume 384well microtiter plate (Greiner Bio-One, Frickenhausen, Germany), 2 μl of a solution of CDK2/CycE in aqueous assay buffer [50 mM Tris/HCl pH 8.0, 10 mM MgCl2, 1.0 mM dithiothreitol, 0.1 mM sodium ortho-vanadate, 0.01% (v/v) Nonidet-P40 (Sigma)] were added and the mixture was incubated for […] at 22° C. to allow pre-binding of the test compounds to the enzyme before the start of the kinase reaction. Then the kinase reaction was started by the addition of 3 μl of a solution of adenosine-tri-phosphate (ATP, 16.7 μM=>final conc. in the 5 it assay volume is 10 μM) and substrate (1.25 μM=>final conc. in the 5 it assay volume is 0.75 μM) in assay buffer and the resulting mixture was incubated for a reaction time of […] at 22° C. The concentration of CDK2/CycE was adjusted depending of the activity of the enzyme lot and was chosen appropriate to have the assay in the linear range, typical concentrations were in the range of 130 ng/ml. The reaction was stopped by the addition of 5 it of a solution of TR-FRET detection reagents (0.2 μM streptavidine-XL665 [Cisbio Bioassays, Codolet, France] and 1 nM anti-RB(pSer807/pSer811)-antibody from BD Pharmingen [#558389] and 1.2 nM LANCE EU-W1024 labeled anti-mouse IgG antibody [Perkin-Elmer, product no. AD0077]) in an aqueous EDTA-solution (100 mM EDTA, 0.2% (w/v) bovine serum albumin in 100 mM HEPES/NaOH pH 7.0).
as §1, with “TR-FRET” for “HTRF”

T1 sequence (P50750 whole entry): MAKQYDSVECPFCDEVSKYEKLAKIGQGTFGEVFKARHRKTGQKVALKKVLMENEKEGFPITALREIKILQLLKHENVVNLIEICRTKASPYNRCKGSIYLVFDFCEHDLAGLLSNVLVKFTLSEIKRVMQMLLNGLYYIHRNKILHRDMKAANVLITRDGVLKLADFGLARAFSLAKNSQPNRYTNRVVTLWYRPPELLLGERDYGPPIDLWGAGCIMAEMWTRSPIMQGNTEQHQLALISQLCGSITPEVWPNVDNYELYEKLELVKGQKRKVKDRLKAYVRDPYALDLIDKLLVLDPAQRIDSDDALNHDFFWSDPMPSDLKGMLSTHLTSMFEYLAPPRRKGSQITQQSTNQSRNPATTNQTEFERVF
T1 sequence (O60563 whole entry partner): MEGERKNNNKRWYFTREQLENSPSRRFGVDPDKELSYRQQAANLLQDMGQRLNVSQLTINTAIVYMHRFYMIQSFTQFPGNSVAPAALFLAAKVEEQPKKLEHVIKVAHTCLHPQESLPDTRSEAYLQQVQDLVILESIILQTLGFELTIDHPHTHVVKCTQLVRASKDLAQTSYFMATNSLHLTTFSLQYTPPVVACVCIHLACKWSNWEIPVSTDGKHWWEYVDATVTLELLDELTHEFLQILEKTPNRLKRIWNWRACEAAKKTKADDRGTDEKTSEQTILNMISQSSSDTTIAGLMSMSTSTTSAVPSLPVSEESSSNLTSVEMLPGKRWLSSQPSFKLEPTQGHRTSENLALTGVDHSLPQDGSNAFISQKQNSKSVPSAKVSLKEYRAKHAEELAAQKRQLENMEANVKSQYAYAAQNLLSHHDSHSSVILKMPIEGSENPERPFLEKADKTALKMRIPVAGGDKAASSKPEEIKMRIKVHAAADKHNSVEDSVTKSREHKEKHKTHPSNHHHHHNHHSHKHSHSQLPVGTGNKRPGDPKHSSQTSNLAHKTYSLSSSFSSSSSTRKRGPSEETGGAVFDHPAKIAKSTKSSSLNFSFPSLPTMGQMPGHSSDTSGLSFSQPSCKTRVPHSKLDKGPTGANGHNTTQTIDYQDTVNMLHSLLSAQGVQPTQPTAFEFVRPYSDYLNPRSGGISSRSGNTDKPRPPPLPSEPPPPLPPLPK

Row | Structure (SMILES) | IC50 (CDK9/CycT1) [nM] | IC50 [1] [nM] | IC50 (CDK2/CycE) [nM]
1 | CC(Oc1cc(F)ccc1-c1ncnc(Nc2cccc(CS(C)(=O)=O)c2)n1)c1ccccc1 (racemic) [Example 68, rac-4-[4-Fluoro-2-(1-phenylethoxy)phenyl]-N-{3-[(methylsulfonyl)methyl]phenyl}-1,3,5-triazin-2-amine] | 16 | 1400 | 1100
2 | COc1cnccc1-c1ncnc(Nc2cccc(CS(C)(=O)=O)c2)n1 [Example 8, 4-(3-Methoxypyridin-4-yl)-N-{3-[(methylsulfonyl)methyl]phenyl}-1,3,5-triazin-2-amine] | 37 | 1500 | 4700
3 | [2H]C([2H])([2H])Oc1ccccc1-c1ncnc(Nc2cccc(CS(C)(=O)=O)c2)n1 [Example 22, 4-{2-[(^2H3)methyloxy]phenyl}-N-{3-[(methylsulfonyl)methyl]phenyl}-1,3,5-triazin-2-amine] | 23 | 1400 | 2500
4 | COCCS(=O)(=O)Cc1cccc(Nc2ncnc(-c3ccc(F)cc3OC)n2)c1 [Example 23, 4-(4-Fluoro-2-methoxyphenyl)-N-(3-{[(2-methoxyethyl)sulfonyl]methyl}phenyl)-1,3,5-triazin-2-amine] | 12 | 930 | 1300
5 | CS(=O)(=O)Cc1cccc(Nc2ncnc(-c3ccccc3OCc3ccc(F)cc3)n2)c1 [Example 25, 4-{2-[(4-Fluorobenzyl)oxy]phenyl}-N-{3-[(methylsulfonyl)methyl]phenyl}-1,3,5-triazin-2-amine] | 7 | 760 | 1100
6 | CS(=O)(=O)Cc1cccc(Nc2ncnc(-c3ccc(F)cc3OCc3cc(F)c(F)cc3F)n2)c1 [Example 75, 4-{4-Fluoro-2-[(2,4,5-trifluorobenzyl)oxy]phenyl}-N-{3-[(methylsulfonyl)-methyl]phenyl}-1,3,5-triazin-2-amine] | 6 | 1100 | –
7 | CS(=O)(=O)Cc1cccc(Nc2ncnc(-c3ccc(F)cc3OCc3cc(F)cc(C(F)(F)F)c3)n2)c1 [Example 78, 4-(4-Fluoro-2-{[3-fluoro-5-(trifluoromethyl)benzyl]oxy}phenyl)-N-{3-[(methylsulfonyl)-methyl]-phenyl}-1,3,5-triazin-2-amine] | 4 | 950 | –
8 | CS(=O)(=O)Cc1cccc(Nc2ncnc(-c3ccc(F)cc3OCc3ccnc(F)c3)n2)c1 [Example 82, 4-{4-Fluoro-2-[(2-fluoropyridin-4-yl)methoxy]-phenyl}-N-{3-[(methylsulfonyl)-methyl]-phenyl}-1,3,5-triazin-2-amine] | 1 | – | 75

Next, values leading:

Row | IC50 (CDK9/CycT1) [nM] | IC50 [1] [nM] | IC50 (CDK2/CycE) [nM] | Structure (SMILES)
9 | 15 | 950 | 710 | CS(=O)(=O)Cc1cccc(Nc2ncnc(-c3cccc4c3OCC4)n2)c1 [Example 13, 4-(2,3-Dihydro-1-benzofuran-7-yl)-N-{3-[(methylsulfonyl)methyl]phenyl}-1,3,5-triazin-2-amine]
10 | 12 | 600 | 610 | COc1cc(F)ccc1-c1ncnc(Nc2cccc(CS(=O)(=O)CCO)c2)n1 [Example 14, 2-[(3-{[4-(4-Fluoro-2-methoxyphenyl)-1,3,5-triazin-2-yl]amino}benzyl)sulfonyl]ethanol]
11 | 7 | 1000 | 680 | COc1cc(F)ccc1-c1ncnc(Nc2cccc(CS(=O)(=O)C(C)C)c2)n1 [Example 24, 4-(4-Fluoro-2-methoxyphenyl)-N-{3-[(propan-2-ylsulfonyl)methyl]phenyl}-1,3,5-triazin-2-amine]
12 | 5 | 820 | – | CS(=O)(=O)Cc1cccc(Nc2ncnc(-c3ccc(F)cc3OCc3cc(F)ccc3F)n2)c1 [Example 81, 4-{2-[(2,5-Difluorobenzyl)-oxy]-4-fluorophenyl}-N-{3-[(methylsulfonyl)methyl]phenyl}-1,3,5-triazin-2-amine]

— patent US8916557B2, “Substituted 4-Aryl-N-phenyl-1,3,5-triazin-2-amines” (Bayer Intellectual Property GmbH, priority 2011, dated 2014)
